The text below walks through data of patent publication US20240025875A1, “A COMPOUND AS A THYROID HORMONE BETA RECEPTOR AGONIST AND USE THEREOF” (SUNSHINE LAKE PHARMA CO., LTD., priority 2020, published 2024).

Series [1] has as its target T1, TRβ (Homo sapiens, UniProt P10828).
T1 construct: 5 μL of 4×TR beta/alfa-LBD; purchased Invitrogen PV4686
T1 sequence (P10828 217-461 limits assumed): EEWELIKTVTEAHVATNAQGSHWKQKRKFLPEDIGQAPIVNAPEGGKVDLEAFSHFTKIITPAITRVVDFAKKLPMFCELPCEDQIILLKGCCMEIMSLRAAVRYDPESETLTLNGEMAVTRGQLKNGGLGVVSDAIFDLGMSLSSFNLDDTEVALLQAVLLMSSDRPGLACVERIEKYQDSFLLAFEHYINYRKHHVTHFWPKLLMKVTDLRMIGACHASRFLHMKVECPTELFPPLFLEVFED
Kind of series: LanthaScreen TR-FRET Thyroid Receptor beta Coactivator Assay (in vitro binding activity). The settings on record: TR beta-LBD. Put shortly: (§1)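 TR-FRET coactivator recruitment used GST-tagged TRα or TRβ ligand-binding domain with fluorescein-SRC2-2 peptide and Tb anti-GST antibody (0.4 μM and 8 nM in the added mix). Compound was run as 10-point 3-fold dilutions (2% DMSO solution) for 1 h at room temperature in the dark. EC50 came from the 520/495 nm emission ratio.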

Series [2] concerns the target T2, TRα (Homo sapiens, UniProt P10827).
T2 construct: 5 μL of 4×TR beta/alfa-LBD; purchased Invitrogen PV4687
Briefly: LanthaScreen TR-FRET Thyroid Receptor alfa Coactivator Assay (in vitro binding activity). The settings on record: TR alfa-LBD. Put shortly: as §1
In general terms: TR-FRET usually uses a lanthanide donor and a delayed reading to cut background.

Series [3] is described as follows: Pharmacokinetic determination in SD rats (i.v. and i.g.). The class given is in vivo. The settings on record: for AUC(0-inf) / AUC(0-t) / Cmax / clearance / half-life / Vd: male, Sprague-Dawley (SD), rat, plasma; for Vd: read-out: VSS. The text has this: Test purposes: The following method was used to determine the pharmacokinetics of the compound of the present invention.
Test Materials: • Experimental reagents and test samples used: Propranolol (internal standard), methanol, ammonium acetate, K2EDTA (potassium ethylenediaminetetraacetic acid), formic acid, acetonitrile MTBE (methyl tert-butyl ether). KolliphorHS15 (macrogol 12 hydroxystearate), DMSO (dimethyl sulfoxide) are commercially available • SD rats: male, 180-220 g, 7-8 weeks old, purchased from Human Slack Experimental Animal Co., Ltd.
Each test sample prepared was completely dissolved in a mixture of 5% DMSO+5% KolliphorHS 15+90% Saline according solubility property thereof.
Samples were processed by liquid-liquid extraction, chromatographically separated, quantitatively analyzed by multiple reaction ion monitoring (MRM) on a triple quadrupole tandem mass spectrometer, and the concentration of the results was calculated by instrument quantitative software.
30 μL of plasma sample was precisely pipetted, added with 250 μL of internal standard, and vortexed to mix thoroughly. Plasma samples was extracted once with 1 mL of MTBE, centrifuged at 13,000 rpm for 2 min at 4° C. 800 μL of the supernatant was sucked out, evaporated to dryness in a 96-well nitrogen blower, and the residue was reconstituted with 150 μL of methanol/water (v/v=50/50), vortexed to mix, and injected with an injection volume of 8 μL.
LC/MS/MS method was used to determine the content of the test compound in rat plasma after administration of different compounds.
Pharmacokinetic parameters were calculated using a noncompartmental method by WinNonLin 6.1 software.

T2 sequence (P10827 163-410 isoform P10827-2 limits assumed, other chains not shown): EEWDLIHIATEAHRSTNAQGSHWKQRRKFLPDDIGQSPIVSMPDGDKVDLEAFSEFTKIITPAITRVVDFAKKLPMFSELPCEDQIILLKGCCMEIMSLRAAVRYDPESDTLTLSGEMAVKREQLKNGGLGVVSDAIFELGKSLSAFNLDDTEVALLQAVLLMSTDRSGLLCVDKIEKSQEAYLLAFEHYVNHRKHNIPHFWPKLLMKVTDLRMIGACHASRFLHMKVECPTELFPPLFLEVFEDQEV

Consider `O=C1c2ccc(Oc3c(Cl)cc(-n4ncc(=O)[nH]c4=O)cc3Cl)cc2CCN1c1cccnc1` [Example 49, 2-(3,5-dichloro-4-((1-oxo-2-(pyridin-3-yl)-1,2,3,4-tetrahydroisoquinolin-6-yl)oxy)phenyl)-1,2,4-triazine-3,5(2H,4H)-dione], for which the 50% effective concentration (EC50) in series [1] stood at 0.107 µM. Also, the half-maximal effective concentration (EC50) in series [2] was over 100 µM. The same compound came in with a F in series [3] (ig, 5 mg/kg) of 138.3%. In series [3] (iv, 1 mg/kg), the AUC(0-inf) was determined as 3730 ng·h/mL, the AUC(0-t) worked out at 3580 ng·h/mL, the Cmax turned out to be 5300 ng/mL and the clearance was found to be 4.46 mL/min/kg. Also, in series [3] (iv, 1 mg/kg), the half-life is 1.14 h and the Vd was 0.306 L/kg. In series [3] (po, ig, 5 mg/kg), this compound gave a total exposure AUC(0-inf) of 25800 ng·h/mL, an AUC(0-t) of 25300 ng·h/mL, a Cmax of 9680 ng/mL and a half-life of 3.63 h.
In series [1], `O=C1c2ccc(Oc3c(Cl)cc(-n4ncc(=O)[nH]c4=O)cc3Cl)cc2CCN1Cc1ccccn1` [Example 46, 2-(3,5-dichloro-4-((1-oxo-2-(pyridin-2-ylmethyl)-1,2,3,4-tetrahydroisoquinolin-6-yl)oxy)phenyl)-1,2,4-triazine-3,5(2H,4H)-dione] gave an EC50 of 0.035 µM. The same compound displayed an EC50 in series [2] of over 100 µM. The same compound yielded a F in series [3] (ig, 5 mg/kg) of 126.5%. Moreover, in series [3] (iv, 1 mg/kg), the AUC(0-inf) was 10000 ng·h/mL, the area under the curve AUC(0-t) was 9810 ng·h/mL, the peak level (Cmax) was 4160 ng/mL and the clearance turned out to be 1.66 mL/min/kg. Moreover, in series [3] (iv, 1 mg/kg), the half-life is 4.24 h and the Vd stood at 0.424 L/kg. In series [3] (po, ig, 5 mg/kg), this compound showed an AUC(0-inf) of 633000 ng·h/mL, an area under the curve AUC(0-t) of 61900 ng·h/mL, a Cmax of 6410 ng/mL and a half-life of 5.93 h.
As to `O=C1c2ccc(Oc3c(Cl)cc(-n4ncc(=O)[nH]c4=O)cc3Cl)cc2CCN1Cc1ccc(F)cc1` [Example 20, 2-(3,5-dichloro-4-((2-(4-fluorobenzyl)-1-oxo-1,2,3,4-tetrahydroisoquinolin-6-yl)oxy)phenyl)-1,2,4-triazine-3,5(2H,4H)-dione], in series [1], the EC50 turned out to be 0.012 µM. Also, the EC50 in series [2] is over 100 µM. In addition, the F in series [3] (ig, 5 mg/kg) is given as 115.1%. In series [3] (iv, 1 mg/kg), the total exposure AUC(0-inf) worked out at 16400 ng·h/mL, the AUC(0-t) was 16300 ng·h/mL, the peak concentration (Cmax) stood at 3990 ng/mL and the clearance was found to be 1.01 mL/min/kg. Also, in series [3] (iv, 1 mg/kg), the half-life is 3.16 h and the Vd stood at 0.251 L/kg. In series [3] (po, ig, 5 mg/kg), this compound gave an area under the curve AUC(0-inf) of 94400 ng·h/mL, an exposure AUC(0-t) of 93700 ng·h/mL, a maximum concentration (Cmax) of 10400 ng/mL and a half-life of 3.57 h.
For `O=C1c2ccc(Oc3c(Cl)cc(-n4ncc(=O)[nH]c4=O)cc3Cl)cc2CCN1c1cccc(F)c1` [Example 42, 2-(3,5-dichloro-4-((2-(3-fluorophenyl)-1-oxo-1,2,3,4-tetrahydroisoquinolin-6-yl)oxy)phenyl)-1,2,4-triazine-3,5(2H,4H)-dione], the EC50 in series [1] worked out at 0.016 µM. The EC50 in series [2] was over 100 µM. For the same compound, in series [3] (ig, 5 mg/kg), the F is given as 134.8%. Besides, in series [3] (iv, 1 mg/kg), the AUC(0-inf) is 1960 ng·h/mL, the AUC(0-t) worked out at 1860 ng·h/mL, the highest level (Cmax) was 4340 ng/mL and the clearance worked out at 8.49 mL/min/kg. In series [3] (iv, 1 mg/kg), the half-life is 2.97 h and the Vd is 0.658 L/kg. In series [3] (po, ig, 5 mg/kg), this compound had an AUC(0-inf) of 13200 ng·h/mL, an exposure AUC(0-t) of 12700 ng·h/mL, a Cmax of 7700 ng/mL and a half-life of 2.53 h.
In series [1], `O=C1c2ccc(Oc3c(Cl)cc(-n4ncc(=O)[nH]c4=O)cc3Cl)cc2CCN1c1ccc(F)cc1` [Example 28] came in with an EC50 of 0.017 µM. In series [2], this compound displayed an EC50 of over 100 µM. The compound also registered a F in series [3] (ig, 5 mg/kg) of 97.6%. In series [3] (iv, 1 mg/kg), this compound showed an AUC(0-inf) of 9640 ng·h/mL, an AUC(0-t) of 8730 ng·h/mL, a Cmax of 8400 ng/mL and a clearance of 1.73 mL/min/kg. Moreover, in series [3] (iv, 1 mg/kg), the half-life was 2.91 h and the Vd came out at 0.246 L/kg. Further, in series [3] (po, ig, 5 mg/kg), the AUC(0-inf) is 47000 ng·h/mL, the area under the curve AUC(0-t) was 47000 ng·h/mL, the peak level (Cmax) was 15500 ng/mL and the half-life is 2.29 h.
Consider `O=C1c2ccc(Oc3c(Cl)cc(-n4ncc(=O)[nH]c4=O)cc3Cl)cc2CCN1Cc1ccc(Cl)cc1` [Example 37, 2-(3,5-dichloro-4-((2-(4-chlorobenzyl)-1-oxo-1,2,3,4-tetrahydroisoquinolin-6-yl)oxy)phenyl)-1,2,4-triazine-3,5(2H,4H)-dione], for which the EC50 in series [1] was 0.043 µM. In series [2], the EC50 is over 100 µM. The F in series [3] (ig, 5 mg/kg) worked out at 116.3%. Moreover, in series [3] (iv, 1 mg/kg), the AUC(0-inf) amounted to 21100 ng·h/mL, the exposure AUC(0-t) was determined as 20900 ng·h/mL, the peak concentration (Cmax) was 4200 ng/mL and the clearance amounted to 0.789 mL/min/kg. For the same compound, in series [3] (iv, 1 mg/kg), the half-life is 3.61 h and the Vd came out at 0.212 L/kg. For the same compound, in series [3] (po, ig, 5 mg/kg), the AUC(0-inf) was found to be 122000 ng·h/mL, the AUC(0-t) worked out at 121000 ng·h/mL, the concentration peaked (Cmax) at 12300 ng/mL and the half-life is 3.5 h.
In series [1], `O=C1c2ccc(Oc3c(Cl)cc(-n4ncc(=O)[nH]c4=O)cc3Cl)cc2CCN1Cc1ccncc1` [Example 24, 2-(3,5-dichloro-4-((1-oxo-2-(pyridin-4-ylmethyl)-1,2,3,4-tetrahydroisoquinolin-6-yl)oxy)phenyl)-1,2,4-triazine-3,5(2H,4H)-dione] came in with an EC50 of 0.075 µM. This compound came in with an EC50 in series [2] of over 100 µM. Besides, in series [3] (ig, 5 mg/kg), the F is 117.7%. Further, in series [3] (iv, 1 mg/kg), the AUC(0-inf) amounted to 3790 ng·h/mL, the AUC(0-t) was determined as 3720 ng·h/mL, the Cmax turned out to be 4020 ng/mL and the clearance worked out at 4.39 mL/min/kg. Moreover, in series [3] (iv, 1 mg/kg), the half-life is 1.16 h and the Vd was determined as 0.337 L/kg. Further, in series [3] (po, ig, 5 mg/kg), the AUC(0-inf) is 223000 ng·h/mL, the area under the curve AUC(0-t) worked out at 21900 ng·h/mL, the highest concentration (Cmax) came to 7790 ng/mL and the half-life was 2.65 h.

One may read the EC50 as the concentration giving half of the maximal effect. A low value points to a more potent agent. Broadly, the AUC(0-inf) is the area under the concentration-time curve extrapolated to infinity. Read a high AUC(0-inf) as high exposure. Usually AUC(0-t) stands for the area under the concentration-time curve up to a stated or last time point. Low values mean less exposure, high ones more exposure. The Cmax is the peak of the concentration-time curve. One may read the clearance as a measure of how efficiently the substance is removed, as volume per time. A high value points to a high capacity for elimination. Broadly, the half-life is the time needed for the level to fall by half in the phase considered. Read a low half-life as fast loss.
